Measurements reported in PubChem BioAssay (NCI).
Values joined by “and” are separate entries in the source; they are usually repeats but may differ in a detail not shown here. Equal entries are not always repeated.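 How tested: cells in 96-well plates exposed to compound for 48 hours at five concentrations. Here, GI50 denotes the concentration required for 50% inhibition of growth. The concentration for full growth arrest is given as TGI.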

Legend:
Assay in all cases: NCI anticancer screen, dose series, 48 h
HCC-2998 colon = system: HCC-2998 colon
K-562 leukemia = system: K-562 leukemia
MCF7 breast = system: MCF7 breast
NCI-H226 lung = system: NCI-H226 lung
RPMI-8226 leukemia = system: RPMI-8226 leukemia
SF-268 CNS = system: SF-268 CNS
SF-539 CNS = system: SF-539 CNS
SNB-75 CNS = system: SNB-75 CNS
SW-620 colon = system: SW-620 colon
TK-10 renal = system: TK-10 renal

Row | SMILES | TGI (HCC-2998 colon) | TGI (K-562 leukemia) | TGI (MCF7 breast) [µM] | TGI (NCI-H226 lung) [µM] | TGI (RPMI-8226 leukemia) | TGI (SF-268 CNS) | TGI (SF-539 CNS) | TGI (SNB-75 CNS) | TGI (SW-620 colon) | TGI (TK-10 renal) | GI50 (HCC-2998 colon) [µM] | GI50 (K-562 leukemia) | GI50 (MCF7 breast) [µM] | GI50 (NCI-H226 lung) [µM] | GI50 (RPMI-8226 leukemia) | GI50 (SF-268 CNS) [µM] | GI50 (SF-539 CNS) [µM] | GI50 (SNB-75 CNS) [µM] | GI50 (SW-620 colon) [µM] | GI50 (TK-10 renal) [µM]
1 | O=[N+]([O-])C(=C(N1CCCCC1)N1CCCCC1)/C(Cl)=C(\Cl)Br | 32.3 µM | 46.2 µM | 88.9 | 44.6 | 44.2 µM | 87.9 µM | 69.2 µM | 34.4 µM | 38.5 µM | 72 µM | – | – | – | – | – | – | – | – | – | –
2 | CC(C)=CCc1c2c(c3occ(-c4ccc(O)c(O)c4)c(=O)c3c1O)C=CC(C)(C)O2 | 2.45 µM | 5.12 µM | 11.4 | 34.6 | 4.04 µM | 4.93 µM | 4.14 µM | 8.51 µM | 2.36 µM | 3.67 µM | – | – | – | – | – | – | – | – | – | –
3 | O=c1cc(/C=C/c2ccc(O)c(O)c2)oc(/C=C/c2ccc(O)c(O)c2)c1 | 6.92 µM | > 20.7 µM | 30.8 | 28.1 | > 27.4 µM | 13.2 µM | 6.73 µM | 15.3 µM | > 26.8 µM | 19.4 µM | – | – | – | – | – | – | – | – | – | –
4 | CN(C)c1nc(=NCc2ccncc2)ss1 | > 100 µM | 47.7 µM | > 100 | > 100 | 53.1 µM | > 100 µM | > 67 µM | 34.7 µM | 50.7 µM | > 100 µM | – | – | – | – | – | – | – | – | – | –
5 | Cc1ccc(S(=O)(=O)Oc2cc(N)c3c(n2)CCC3)cc1 | > 100 µM | > 100 µM | > 100 | > 100 | > 100 µM | > 100 µM | > 100 µM | > 100 µM | > 100 µM | > 100 µM | – | – | – | – | – | – | – | – | – | –
6 | C=C1C(O)C2(O)OCC34C(CC5C(C)=CC(=O)C(O)C5(C)C23)OC(=O)C(OC(=O)C/C=C(\C)CCCCC)C14 (stereo not given) | 0.00222 µM and 0.019 µM | – | – | – | – | – | – | 0.00366 µM and 0.0278 µM | 0.0158 µM and 0.119 µM and 0.026 µM | 0.0119 µM and 0.0865 µM | < 0.001 | < 0.001 µM | < 0.001 | < 0.001 | < 0.001 µM | < 0.001 | < 0.001 | < 0.001 | < 0.001 | 0.0239
7 | CC(C)(C)NC(=O)[C@H]1CC[C@H]2[C@@H]3CC=C4NC(=O)CC[C@]4(C)[C@H]3CC[C@]12C | > 100 µM | > 100 µM | > 100 | > 100 | > 100 µM | > 100 µM | > 100 µM | 99 µM | > 100 µM | > 100 µM | – | – | – | – | – | – | – | – | – | –
8 | Cc1ccccc1OC(C)C(=O)NN1C(=O)CC(=O)N(c2ccc(Cl)cc2)C1=S (stereo not given) | 71.9 µM | > 100 µM | > 100 | > 100 | > 100 µM | > 100 µM | > 100 µM | > 100 µM | > 100 µM | > 100 µM | – | – | – | – | – | – | – | – | – | –
9 | C=C(Cl)/C(=C\Cl)CCC(Br)C(C)C (stereo not given) | > 100 µM | > 100 µM | > 100 | > 100 | > 100 µM | > 100 µM | > 100 µM | > 100 µM | 37.9 µM | > 100 µM | – | – | – | – | – | – | – | – | – | –
10 | Oc1ccc(-c2nnc3sc(-c4ccc(F)cc4)nn23)cc1 | > 100 µM | > 100 µM | > 100 | > 100 | > 100 µM | 62.6 µM | > 100 µM | 43.3 µM | > 100 µM | > 100 µM | > 100 | > 100 µM | 59.7 | 49.6 | 39 µM | 23 | 36.5 | 22.8 | > 100 | 69.8
11 | COC(=O)NN(C(=O)OC)c1c(-c2ccccc2)nc(SC)n1N | > 100 µM | > 100 µM | > 100 | > 100 | > 100 µM | > 100 µM | > 100 µM | > 100 µM | > 100 µM | > 100 µM | – | – | – | – | – | – | – | – | – | –
12 | O=C(Nc1cccc2cnccc12)c1cc2c(cc1Cl)Sc1nccn1S2(=O)=O | 29.9 µM | > 100 µM | 37.1 | 38.5 | 38.6 µM | 42.2 µM | 59.3 µM | 47.4 µM | 50.8 µM | 59.2 µM | – | – | – | – | – | – | – | – | – | –
13 | C[n+]1c(-c2ccccc2)cc2/c(=C\c3ccc([N+](=O)[O-])cc3)c3ccccc3n21 | > 100 µM | > 100 µM | > 94.1 | 25.4 | > 100 µM | 29.1 µM | 34.7 µM | 15.6 µM | 29 µM | > 100 µM | – | – | – | – | – | – | – | – | – | –
14 | C=C1C(=O)OC2/C=C(\CO)C(OC(C)=O)CC(O)/C(C)=C/C(OC(=O)C(C)CC)C12 (stereo not given) | 52.7 µM and 30.4 µM | 21.4 µM and > 100 µM | 25.8 | 59.6 | 23.4 µM and 56.3 µM | 73.3 µM and 49.9 µM | 37.9 µM and 66 µM | 69.3 µM and 96.3 µM | 24.4 µM and 78 µM | 36 µM and 38.7 µM | – | 5.62 µM and 36.9 µM | – | – | 5.57 µM and 24.9 µM | – | – | – | – | –
15 | O=C1NCCCc2nonc21 | > 100 µM | > 100 µM | > 100 | > 100 | > 100 µM | > 100 µM | > 100 µM | > 100 µM | > 100 µM | > 100 µM | – | – | – | – | – | – | – | – | – | –
16 | CSCCC(NCc1c(O)ccc2c(-c3ccccc3)cc(=O)oc12)C(=O)O (stereo not given) | > 100 µM | > 100 µM | > 100 | > 100 | > 100 µM | > 100 µM | > 100 µM | > 100 µM | > 100 µM | > 100 µM | – | – | – | – | – | – | – | – | – | –
17 | CC(=O)OC(C)c1cc2c(s1)C(=O)c1sccc1C2=O (stereo not given) | 3.54 µM | > 100 µM | 3.9 | 3.94 | 4.78 µM | 4.09 µM | 0.689 µM | 2.63 µM | > 100 µM | 3.86 µM | – | – | – | – | – | – | – | – | – | –
18 | C=C1[C@@H](O)C[C@@]23CC[C@@H]4[C@@]5(C)CC[C@@H](OC(C)=O)C(C)(C)[C@@H]5C[C@@H](OC5OC(COC(C)=O)C(O)C(O)C5O)[C@@]4(C)C2=CC[C@H]3[C@H]1C (stereo not given in full) | 3.88 µM | 10.6 µM | 7.77 | 17.4 | 8.01 µM | 19 µM | 24.5 µM | 16.1 µM | 21.7 µM | 21 µM | – | – | – | – | – | – | – | – | – | –
19 | Cc1nn(C(=O)Cc2ccccc2)c2c1C(c1ccccc1O)SC(N)=N2 (stereo not given) | > 100 µM | > 100 µM | > 100 | > 100 | > 100 µM | > 100 µM | > 100 µM | > 100 µM | > 100 µM | > 100 µM | – | – | – | – | – | – | – | – | – | –
20 | N#Cc1nc(-c2cc([N+](=O)[O-])cc([N+](=O)[O-])c2)oc1N | > 10 µM | > 10 µM | > 10 | > 10 | > 10 µM | > 10 µM | > 10 µM | > 10 µM | > 10 µM | > 10 µM | – | – | – | – | – | – | – | – | – | –
21 | O=C(O)C1CC(c2ccc(F)cc2)=Nc2ccc(F)cc2S1 (stereo not given) | > 100 µM | > 100 µM | > 100 | > 100 | > 100 µM | > 100 µM | > 100 µM | > 100 µM | > 100 µM | > 100 µM | – | – | – | – | – | – | – | – | – | –
22 | COC(=O)c1ccccc1/C=C1/Cc2ccccc2C1=O | > 100 µM | > 100 µM | > 100 | > 100 | 49.5 µM | > 100 µM | > 100 µM | > 100 µM | 85.5 µM | > 100 µM | – | – | – | – | – | – | – | – | – | –
23 | COc1cc2c(cc1OCCCCOc1cc(-c3ccc(F)cc3)nc(C)n1)N=C[C@@H]1CCCN1C2=O | 0.689 µM | 9.5 µM | 15.2 | 4.71 | 0.36 µM | 16.3 µM | 2.31 µM | 17.8 µM | 4.85 µM | 0.487 µM | – | – | – | – | – | – | – | – | – | –
24 | CCCCn1c2c(n(CCCC)c1=S)-c1c(n(CCCC)c(=S)n1CCCC)S[Se][Se]S2 | 61.6 µM | > 100 µM | > 100 | 49.4 | > 35.3 µM | > 83.4 µM | 12.5 µM | 31.5 µM | 6.64 µM | 30.5 µM | – | – | – | – | – | – | – | – | – | –
25 | CCC[C@H]1C(=O)N=C(N)N1C(=O)OCc1ccccc1 | > 100 µM | > 100 µM | > 100 | > 100 | > 100 µM | > 100 µM | > 100 µM | > 100 µM | > 100 µM | > 100 µM | – | – | – | – | – | – | – | – | – | –
26 | Cc1cc(-c2nc3c(O)cccc3s2)ccc1N | > 100 µM | > 100 µM | 32.6 | > 100 | > 100 µM | 75.6 µM | > 100 µM | > 100 µM | > 100 µM | 74.8 µM | – | – | – | – | – | – | – | – | – | –
27 | O=C(NC(Cc1c[nH]c2ccccc12)C(=O)O)/C(=C/c1ccccc1O)NC(=O)c1ccccc1 (stereo not given) | > 100 µM | > 100 µM | 24.9 | 61.5 | > 100 µM | 45.6 µM | 40.6 µM | 38.5 µM | > 100 µM | > 100 µM | – | – | – | – | – | – | – | – | – | –
28 | CCCCCCCCCC[C@H](O)[C@H]1CC[C@H]([C@H]2CC[C@H]([C@H](O)CC[C@H](O)CCCCCCC[C@@H](O)CC3=C[C@H](C)OC3=O)O2)O1 | > 100 µM | 67.8 µM | > 100 | > 100 | 10.5 µM | > 100 µM | > 100 µM | 79.7 µM | > 100 µM | > 100 µM | – | – | 3.98 | > 100 | – | > 100 | – | – | > 100 | –
